Assay [1] relates to primary colon cancer samples from patients with high M3 receptor expression grown as organoids.
The conditions of assay [2]: patients with irritable bowel syndrome; cited from earlier work.

Structures are written as SMILES.

Regarding `c1ccc(C(O[C@@H]2CCCN(CCc3ccc4c(c3)OCO4)C2)c2ccccc2)cc1` [zamifenacin], the Organoid growth result in assay [1] is recorded as “inhibited”. Also, in assay [2], the Colonic motor activity entry was “reduce colonic motor activity”.

The values above are taken from US20240066018A1 (priority 2022, published 2024).
